Reference: PubChem BioAssay AID330 (DTP/NCI, 2004)
“And” between values parts separate entries of the source, which are not always exact repeats. Equal values may be shown once. Inconclusive results and toxic doses are left out. How the source made its calls: active means survival T/C of 150% or more; inactive means T/C below 125% in these data.

Test system: P388 leukemia ip, CD2F1 mice, survival T/C
Assay: NCI In Vivo Anticancer Drug Screen. Data for tumor model P388 Leukemia (intraperitoneal) in CD2F1 (CDF1) mice
Conditions: endpoint: median survival time, higher = longer survival
In short: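 Mice carrying the transplanted tumor received test compound or vehicle. Survival was recorded in each group, and the value is the treated-group measurement divided by that of the vehicle-treated control group.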

[1] = dose: 50.0 mg/kg/injection, schedule: Q01DX009 (ip), vehicle: saline with Tween-80
[2] = dose: 100.0 mg/kg/injection, schedule: Q01DX009 (ip), vehicle: saline with Tween-80
[3] = dose: 200.0 mg/kg/injection, schedule: Q01DX009 (ip), vehicle: saline with Tween-80
[4] = dose: 400.0 mg/kg/injection, schedule: Q01DX009 (ip), vehicle: saline with Tween-80
[5] = dose: 50.0 mg/kg/injection, schedule: Q01DX005 (ip), vehicle: Klucel (hydroxypropylcellulose) (HPC)
[6] = dose: 100.0 mg/kg/injection, schedule: Q01DX005 (ip), vehicle: Klucel (hydroxypropylcellulose) (HPC)
[7] = dose: 200.0 mg/kg/injection, schedule: Q01DX005 (ip), vehicle: Klucel (hydroxypropylcellulose) (HPC)
[8] = dose: 50.0 mg/kg/injection, schedule: Q01DX009 (ip), vehicle: Klucel (hydroxypropylcellulose) (HPC)
[9] = dose: 100.0 mg/kg/injection, schedule: Q01DX009 (ip), vehicle: Klucel (hydroxypropylcellulose) (HPC)
[10] = dose: 200.0 mg/kg/injection, schedule: Q01DX009 (ip), vehicle: Klucel (hydroxypropylcellulose) (HPC)
[11] = dose: 400.0 mg/kg/injection, schedule: Q01DX009 (ip), vehicle: Klucel (hydroxypropylcellulose) (HPC)
[12] = dose: 50.0 mg/kg/injection, schedule: Q01DX005 (ip), vehicle: saline with Tween-80

Measured: T/C

Fc1ccc(CSC(=S)Nc2ccc(F)cc2)cc1
inactive: dose: 50.0 mg/kg/injection, schedule: Q01DX009 (ip), vehicle: suspension in saline 108 % of control | dose: 100.0 mg/kg/injection, schedule: Q01DX009 (ip), vehicle: suspension in saline 103 % of control | dose: 200.0 mg/kg/injection, schedule: Q01DX009 (ip), vehicle: suspension in saline 108 % of control

O=C(Nc1ccccc1)OCC1CC1
inactive: [1] 99 % of control | [2] 115 % of control | [3] 96 % of control | [4] 89 % of control

CCOc1ccc(C(C)c2cc3c(cc2OCC)OCO3)cc1C (stereo not given)
inactive: dose: 25.0 mg/kg/injection, schedule: Q01DX005 (ip), vehicle: Klucel (hydroxypropylcellulose) (HPC) 94 % of control | [5] 110 % of control and 116 % of control and 97 % of control | [6] 101 % of control and 119 % of control | [7] 114 % of control

CNC(=O)Nc1ccc[nH]c1=O
inactive: dose: 25.0 mg/kg/injection, schedule: Q01DX009 (ip), vehicle: Klucel (hydroxypropylcellulose) (HPC) 103 % of control and 95 % of control | dose: 25.0 mg/kg/injection, schedule: Q01DX009 (ip), vehicle: saline 101 % of control | [8] 90 % of control and 91 % of control | dose: 50.0 mg/kg/injection, schedule: Q01DX009 (ip), vehicle: saline 99 % of control and 97 % of control | [9] 105 % of control and 96 % of control | dose: 100.0 mg/kg/injection, schedule: Q01DX009 (ip), vehicle: saline 100 % of control and 108 % of control | [10] 101 % of control and 87 % of control | dose: 200.0 mg/kg/injection, schedule: Q01DX009 (ip), vehicle: saline 99 % of control | [11] 109 % of control and 96 % of control | dose: 400.0 mg/kg/injection, schedule: Q01DX009 (ip), vehicle: saline 102 % of control and 109 % of control

O=C(O)C1CN(C(=O)OCC2c3ccccc3-c3ccccc32)CS1 (stereo not given)
inactive: [12] 94 % of control | dose: 100.0 mg/kg/injection, schedule: Q01DX005 (ip), vehicle: saline with Tween-80 94 % of control | dose: 200.0 mg/kg/injection, schedule: Q01DX005 (ip), vehicle: saline with Tween-80 92 % of control

COc1ccc(C=NCCC[Si]23OCCN(CCO2)CCO3)c(OC)c1OC
inactive: [5] 98 % of control | [6] 94 % of control | [7] 103 % of control

COc1ccc(-n2c3c(c4c(N)ncnc42)CCCC3)cc1
inactive: dose: 60.0 mg/kg/injection, schedule: Q01DX005 (ip), vehicle: saline with Tween-80 105 % of control | dose: 120.0 mg/kg/injection, schedule: Q01DX005 (ip), vehicle: saline with Tween-80 93 % of control

COc1ccc(C2(O)OCC(COc3cc(C)c(Cl)c(C)c3)O2)cc1OC (stereo not given)
inactive: dose: 60.0 mg/kg/injection, schedule: Q01DX005 (ip), vehicle: DMSO 114 % of control | dose: 120.0 mg/kg/injection, schedule: Q01DX005 (ip), vehicle: DMSO 123 % of control | dose: 240.0 mg/kg/injection, schedule: Q01DX005 (ip), vehicle: DMSO 109 % of control

COC(=O)c1ccccc1NC(c1ccccn1)c1ccc2cccnc2c1O (stereo not given)
inactive: dose: 50.0 mg/kg/injection, schedule: Q01DX009 (ip), vehicle: DMSO 111 % of control | [8] 109 % of control | dose: 100.0 mg/kg/injection, schedule: Q01DX009 (ip), vehicle: DMSO 116 % of control | [9] 94 % of control | [10] 106 % of control | [11] 100 % of control

O=c1c2c([nH]c3ccccc13)CSC2
inactive: [1] 100 % of control | [2] 100 % of control | [3] 97 % of control | [4] 100 % of control

CN1[C@@H]2CC[C@H]1CC(O)(c1ccccc1)C2 (stereo not given in full)
inactive: dose: 12.5 mg/kg/injection, schedule: Q01DX005 (ip), vehicle: saline 94 % of control | dose: 25.0 mg/kg/injection, schedule: Q01DX005 (ip), vehicle: saline 96 % of control | [12] 99 % of control | dose: 50.0 mg/kg/injection, schedule: Q01DX005 (ip), vehicle: saline 92 % of control

O=[N+]([O-])c1cc(C(F)(F)F)cc([N+](=O)[O-])c1Nc1ccccc1
inactive: dose: 30.0 mg/kg/injection, schedule: Q01DX005 (ip), vehicle: Klucel (hydroxypropylcellulose) (HPC) 102 % of control | dose: 60.0 mg/kg/injection, schedule: Q01DX005 (ip), vehicle: Klucel (hydroxypropylcellulose) (HPC) 107 % of control | dose: 120.0 mg/kg/injection, schedule: Q01DX005 (ip), vehicle: Klucel (hydroxypropylcellulose) (HPC) 104 % of control | dose: 240.0 mg/kg/injection, schedule: Q01DX005 (ip), vehicle: Klucel (hydroxypropylcellulose) (HPC) 103 % of control
